Reference: patent US7592422B2, “Modified plasminogen activator inhibitor type-1 and methods based thereon” (Medical College of Ohio, priority 2002, dated 2009)

What was measured:
[1] = tested on: chicken chorioallantoic membrane (angiogenesis in chick embryos); assay: Chicken chorioallantoic membrane (CAM) assay; format: in vivo
Procedure: The one-day-old fertilized eggs were incubated for three days in the water-jacketed incubator (38° C., 85% humidity). The eggs were cracked and the chick embryos with intact yolks were placed in plastic Petri dishes containing 10 ml of RPMI-1640 medium (38° C., 85% humidity, 3% of CO2). After 3 days of incubation, the methylcellulose disk containing inhibitor was implanted on the CAMs of the individual embryos. After 48 h of incubation, CAM of individual embryo was analyzed for formation of avascular zones and photographed. The angiostatic effect was determined as a percentage of the area of blood vessels under the methylcellulose disks (3-5 eggs for each concentration) in relation to the non-treated areas. The area below the dialysis bag and two non-treated areas were scanned and saved on computer disk as tif files. Color images were converted into black/white images, contrast was enhanced, and images were saved as 16-bitmap files using Paint Software (Microsoft Corporation, Redmond, Va.). Black/white images were converted into false color (rainbow striped) images using Transform2 Software (Fortner, Sterling, Va.). […] This method provides some quantification of angiogenesis.

urokinase HMWt, Choay = urokinase HMWt, Choay (Homo sapiens, UniProt P00749); details: 0.05 M Tris pH 8.8, 37° C., substrate 0.5 mM, urokinase at 1000 u/mL; cited from earlier work
urokinase LMWt, Abbott = urokinase LMWt, Abbott (Homo sapiens, UniProt P00749); details: 0.05 M Tris pH 8.8, 37° C., substrate 0.5 mM, urokinase at 1000 u/mL; cited from earlier work

With N=C(N)NC(=O)c1nc(Cl)c(N)nc1N [amiloride] the “large avascular zones outside of areas covered by methylcellulose disk containing the inhibitor” value ([1]; 48 h) was “The effect was observed”.

For O=C(O[C@@H]1Cc2c(O)cc(O)cc2O[C@@H]1c1cc(O)c(O)c(O)c1)c1cc(O)c(O)c(O)c1 [EGCG, epigallocatechin gallate], the “colour change of methylcellulose disks (sign of probable oxidation)” value ([1]; in methylcellulose disk on CAM) was “the methylcellulose disks quickly change color”.

In the case of “Cbo-L-(γ)-Glu (α-t-BuO)-Gly-Arg-pNA.2AcOH [No. 244]”, the Vmax (urokinase HMWt, Choay) is listed as 0.54 μM mm-^1, the κm (urokinase HMWt, Choay) is listed as 30 µM and the Vmax (urokinase LMWt, Abbott) is listed as 0.53 μM mm-^1. For the same compound, the κm (urokinase LMWt, Abbott) was 80 µM.

In the case of VEGF, the “vessel formation, positive control disk” value ([1]; methylcellulose disk containing VEGF) is reported as “dense areas of newly formed vessels were developed”.
